# How the values were obtained:
# Format in all cases: in vivo, rat
# SNL rats = test: Behavioural assessment of the neuropathic state: paw withdrawal to von Frey filaments and acetone; conditions: for Paw Withdrawal Frequency (PWD), 2 g vF Filament / Paw Withdrawal Frequency (PWD), 6 g vF Filament / Paw Withdrawal Frequency (PWD), Cooling Acetone: mean ± S.E.
# Text: A model of experimental neuropathic pain with symptoms of allodynia and hyperalgesia was established by tightly ligating the L5 and L6 spinal nerves as previously described (Kim and Chung, 1992). Within a sterile theatre, rats weighing approximately 130-150 g were anaesthetised (1:1 O2:N2O, 3% halothane for induction, 1% maintenance) and following a small left-side incision at approximately L4-S2, paraspinal muscle and fat was removed from spinous processes. Part of the L6 traverse process was clipped with rangeurs to expose the parallel-lying L4 and L5 spinal nerves. The L5 nerve was isolated and hooked with a finely-pulled glass rod and tightly tied with non-absorbable 6-0 silk thread distal to the dorsal root ganglion (and proximal to the formation of the sciatic nerve). The L6 nerve was then hooked from under the sacrum and tied in a similar way. Haemostasis was confirmed and the wound was sutured with 3-0 absorbable silk. The surrounding skin was pulled together and secured over the injury with wound clips. Rats recovered in an incubator, and once it had been confirmed that they had no observable motor impairment in their left hindpaw, were re-housed in cages as above. Sham surgery was performed in the same environment and under the same conditions except nerves were not hooked or ligated.
# On post-operative days 2, 7, 9 and 14, behavioural signs of punctate mechanical and cooling hypersensitivity were assessed in the left ipsilateral hindpaw relative to the right contralateral hindpaw in awake and alert rats. Rats were individually placed in clear acrylic cubes on an elevated floor of wire mesh, and following a period of acclimation (30 minutes), mechanical sensitivities were determined by paw withdrawal to von Frey (vF) filaments with bending forces 2 g and 6 g (tested in consecutive, ascending force). Each filament was applied to the plantar surface of the paw for ˜2-3 s with enough force to cause buckling, and for each animal this was repeated 10 times at set positions on each paw. […] Cold hypersensitivity was assessed by applying a drop of acetone to each paw 5 times during each testing period, with each application separated by an interval of at least 5 minutes. Withdrawal frequency was quantified as =(number of foot withdrawals/10 or 5 trials as appropriate).
# [1] = test system: spinal dorsal horn neurones in SNL rats; test: Electrophysiology: electrically-evoked dorsal horn neural responses; conditions: for AB-Fiber Response, Number of Action Potentials / AD-Fiber Response, Number of Action Potentials / C-Fiber Response, Number of Action Potentials / Input Response, Number of Action Potentials / Post Discharge Response, Number of Action Potentials / Wind-up Response, Number of Action Potentials: SNL rats, mean ± S.E.
# Method: (§1) Electrophysiology experiments were conducted on post-operative days 14-17 in anaesthetised rats.
# (§2) We recorded the evoked responses of dorsal horn lamina V-VI neurones to stimulation of the peripheral receptive field with: • a train of 16 electrical pulses at 3×C-fibre threshold • mechanical von Frey filaments of increasing force—vf 2 g, 8 g, 26 g and 60 g applied to the centre of the receptive field for 10 seconds • heat—40, 45 and 48° C. applied to the centre of the receptive field by a constant water jet for 10 seconds
# (§3) Following 3 stable baseline responses, 0.03 mg/kg Palonosetron and 0.10 mg/kg Netupitant were administered into the scruff of the neck by subcutaneous injection. Drug effects were followed for two hours with tests carried out at 10, 30, 50, 70, 90 and 110 minutes post injection.
# Input represents the post-synaptic C-fibre-evoked dorsal horn neuronal response following the first of the 16 electrical stimuli in the electrical train. It gives a measure of resting pre-synaptic activity (taken as total neuronal responsiveness upstream of the neurone under study, therefore including afferent excitability, activity at terminals and interneurones) and transmitter release in the absence of potentiation. The baseline ‘input’ response given numerically and graphically in this and other studies, was calculated as the number of C-fibre-evoked action potentials produced by the first stimulus (i.e. initial baseline response) multiplied by the total number of stimuli. Aβ-, Aδ-, and C-fibre responses denote the number of action potentials respectively generated in the spinal cord as a consequence of Aβ-, Aδ-, and C-fibre activity following electrical stimulation of their peripheral receptive field. Our Spike 2 Data Capturing software separates out which incoming action potentials are carried by which fibre according to their latency to arrive in the spinal cord following generation (given the different conduction velocities of the fibres). Thus, those arriving within 20 ms of peripheral stimulation are attributed to Aβ-fibres, Aδ-fibres=20-90 ms, and C-fibre-evoked responses were taken as those recorded 90-300 ms after electrical stimulation. Neuronal responses that trail behind between 300-800 ms post-stimulus are quantified as post-discharge, and represent spinal cord hyperexcitability that results as a consequence of repetitive stimulation of the neurone. Activity-dependent hyperexcitability can additionally be measured as wind-up. This value is calculated as the difference between the total number of action potentials at C-fibre latency produced by the train of 16 electrical stimuli, and ‘input’ as defined and calculated above. Therefore, if the first electrical stimulus elicited 15 C-fibre-evoked action potentials, and the total number of C-fibre-evoked action potentials recorded after 16 stimuli was 350, then wind up=350−([…])=200. If each post-synaptic response was independent of previous activity, then in the example above, the cumulative number of action potentials evoked by C-fibres after the 16 electrical stimuli should theoretically be […]. However, temporal summation of action potentials, and post-synaptic hyperexcitability amplify responses, so wind-up is a measure of the additional action potentials recorded above the predicted baseline level.
# [2] = test system: spinal dorsal horn neurones in SNL rats; test: Electrophysiology: mechanical, heat and brush evoked dorsal horn neural responses; conditions: mean ± S.E.
# Method: as §1, §2, §3
compound,measurement,setting,value
"Cc1ccccc1-c1cc(N2CCN(C)CC2)ncc1N(C)C(=O)C(C)(C)c1cc(C(F)(F)F)cc(C(F)(F)F)c1 [Netu, 2-[3,5-bis(trifluoromethyl)phenyl]-N,2-dimethyl-N-[4-(2-methylphenyl)-6-(4-methylpiperazin-1-yl)pyridin-3-yl]propanamide]","effect on behavioral hypersensitivities (withdrawal responses to vF2 g, vF6 g, acetone)","SNL rats; FIG. 7, SNL rats, 1 mg/kg",appears to inhibit behavioral hypersensitivities
same,"Paw Withdrawal Frequency (PWD), 2 g vF Filament","SNL rats; SNL rats, Netu 0.1 mg/kg s.c.",4.1 ± 1.0
same,"Paw Withdrawal Frequency (PWD), 6 g vF Filament","SNL rats; SNL rats, Netu 0.1 mg/kg s.c.",6.7 ± 1.8
same,"Paw Withdrawal Frequency (PWD), Cooling Acetone","SNL rats; SNL rats, Netu 0.1 mg/kg s.c.",1.9 ± 0.3
same,"Paw Withdrawal Frequency (PWD), 2 g vF Filament","SNL rats; SNL rats, Netu 1 mg/kg s.c.",3.8 ± 1.2
same,"Paw Withdrawal Frequency (PWD), 6 g vF Filament","SNL rats; SNL rats, Netu 1 mg/kg s.c.",6.2 ± 1.5
same,"Paw Withdrawal Frequency (PWD), Cooling Acetone","SNL rats; SNL rats, Netu 1 mg/kg s.c.",2.7 ± 0.5
same,"Paw Withdrawal Frequency (PWD), 2 g vF Filament","SNL rats; SNL rats, Netu 10 mg/kg s.c.",3.9 ± 1.1
same,"Paw Withdrawal Frequency (PWD), 6 g vF Filament","SNL rats; SNL rats, Netu 10 mg/kg s.c.",5.9 ± 1.0
same,"Paw Withdrawal Frequency (PWD), Cooling Acetone","SNL rats; SNL rats, Netu 10 mg/kg s.c.",2.0 ± 0.4
same,"effect in animal models of allodynia/neuropathic pain, agent alone",SNL rats; agent alone,zero or minimal effect
same,"AB-Fiber Response, Number of Action Potentials",[1]; Netu 0.1 mg/kg s.c.,135 ± 10
same,"AD-Fiber Response, Number of Action Potentials",[1]; Netu 0.1 mg/kg s.c.,103 ± 13
same,"C-Fiber Response, Number of Action Potentials",[1]; Netu 0.1 mg/kg s.c.,292 ± 45
same,"Input Response, Number of Action Potentials",[1]; Netu 0.1 mg/kg s.c.,293 ± 46
same,"Post Discharge Response, Number of Action Potentials",[1]; Netu 0.1 mg/kg s.c.,195 ± 29
same,"Wind-up Response, Number of Action Potentials",[1]; Netu 0.1 mg/kg s.c.,270 ± 38
same,"effect on electrophysiological measures of pain control, agent alone",[1],independent effect
same,"Brush-Evoked, Number of Action Potentials",[2]; Netu 0.1 mg/kg s.c.,310 ± 40
same,"Heat-Evoked 40° Celsius, Number of Action Potentials",[2]; Netu 0.1 mg/kg s.c.,298 ± 72
same,"Heat-Evoked 45° Celsius, Number of Action Potentials",[2]; Netu 0.1 mg/kg s.c.,381 ± 82
same,"Heat-Evoked 48° Celsius, Number of Action Potentials",[2]; Netu 0.1 mg/kg s.c.,495 ± 186
same,"Mechanically-Evoked 8 g vF Filament, Number of Action Potentials",[2]; Netu 0.1 mg/kg s.c.,190 ± 42
same,"Mechanically-Evoked 26 g vF Filament, Number of Action Potentials",[2]; Netu 0.1 mg/kg s.c.,390 ± 56
same,"Mechanically-Evoked 60 g vF Filament, Number of Action Potentials",[2]; Netu 0.1 mg/kg s.c.,486 ± 75
"Cl.O=C1c2cccc3c2[C@H](CCC3)CN1[C@@H]1CN2CCC1CC2 [Palo, (3aS)-2-[(S)-1-Azabicyclo[2.2.2]oct-3-yl]-2,3,3a,4,5,6-hexahydro-1-oxo-1Hberiz[de]isoquinoline]","effect on the number of paw withdrawals to vF 2 g, vF 6 g and acetone","SNL rats; FIG. 2, seen in the SNL rats only",dose related reduction
same,"Paw Withdrawal Frequency (PWD), 2 g vF Filament","SNL rats; SNL rats, Palo 0.03 mg/kg s.c.",2.8 ± 0.8
same,"Paw Withdrawal Frequency (PWD), 6 g vF Filament","SNL rats; SNL rats, Palo 0.03 mg/kg s.c.",5.2 ± 1.5
same,"Paw Withdrawal Frequency (PWD), Cooling Acetone","SNL rats; SNL rats, Palo 0.03 mg/kg s.c.",1.2 ± 0.4
same,"Paw Withdrawal Frequency (PWD), 2 g vF Filament","SNL rats; SNL rats, Palo 0.3 mg/kg s.c.",3.1 ± 0.7
same,"Paw Withdrawal Frequency (PWD), 6 g vF Filament","SNL rats; SNL rats, Palo 0.3 mg/kg s.c.",4.1 ± 1.3
same,"Paw Withdrawal Frequency (PWD), Cooling Acetone","SNL rats; SNL rats, Palo 0.3 mg/kg s.c.",1.2 ± 0.5
same,"Paw Withdrawal Frequency (PWD), 2 g vF Filament","SNL rats; SNL rats, Palo 3 mg/kg s.c.",1.4 ± 0.6
same,"Paw Withdrawal Frequency (PWD), 6 g vF Filament","SNL rats; SNL rats, Palo 3 mg/kg s.c.",1.1 ± 0.4
same,"Paw Withdrawal Frequency (PWD), Cooling Acetone","SNL rats; SNL rats, Palo 3 mg/kg s.c.",1.9 ± 0.3
same,"AB-Fiber Response, Number of Action Potentials",[1]; Palo 0.03 mg/kg s.c.,141 ± 22
same,"AD-Fiber Response, Number of Action Potentials",[1]; Palo 0.03 mg/kg s.c.,192 ± 51
same,"C-Fiber Response, Number of Action Potentials",[1]; Palo 0.03 mg/kg s.c.,518 ± 103
same,"Input Response, Number of Action Potentials",[1]; Palo 0.03 mg/kg s.c.,461 ± 86
same,"Post Discharge Response, Number of Action Potentials",[1]; Palo 0.03 mg/kg s.c.,417 ± 127
same,"Wind-up Response, Number of Action Potentials",[1]; Palo 0.03 mg/kg s.c.,559 ± 192
same,"effect on electrophysiological measures of pain control, agent alone",[1],zero or minimal effect
same,"Brush-Evoked, Number of Action Potentials",[2]; Palo 0.03 mg/kg s.c.,144 ± 59
same,"Heat-Evoked 40° Celsius, Number of Action Potentials",[2]; Palo 0.03 mg/kg s.c.,136 ± 58
same,"Heat-Evoked 45° Celsius, Number of Action Potentials",[2]; Palo 0.03 mg/kg s.c.,380 ± 187
same,"Heat-Evoked 48° Celsius, Number of Action Potentials",[2]; Palo 0.03 mg/kg s.c.,816 ± 101
same,"Mechanically-Evoked 8 g vF Filament, Number of Action Potentials",[2]; Palo 0.03 mg/kg s.c.,211 ± 42
same,"Mechanically-Evoked 26 g vF Filament, Number of Action Potentials",[2]; Palo 0.03 mg/kg s.c.,539 ± 17
same,"Mechanically-Evoked 60 g vF Filament, Number of Action Potentials",[2]; Palo 0.03 mg/kg s.c.,799 ± 192
